Data as given in US20100048944A1, “INTERACTIONS OF HEDGEHOG AND LIVER X RECEPTOR SIGNALING PATHWAYS” (priority 2006, published 2010).

How the values were obtained:
Assay type in all cases: cell-based
[1] = tested on: M2-10B4 marrow stromal cells; assay: Alkaline phosphatase activity in M2-10B4 marrow stromal cells; conditions: for Effect on Shh-induced alkaline phosphatase activity / Alkaline Phosphatase Activity: M2-10B4 cells
Description: Alkaline phosphatase activity provides a measure of the osteogenic differentiation of cells. […] The oxysterol combination SS contains 22(S)-hydroxycholesterol and 20(S)-hydroxycholesterol in equal molar proportions. An indication of the molar concentration of the oxysterol combination SS refers to the molar concentration of each component of the combination.

hedgehog pathway = assay: Net effect of LXR agonists on the hedgehog pathway
Description: Thus, GW3965 is a hedgehog-inhibiting LXR agonist. […] Thus, 22(R)-hydroxycholesterol is a hedgehog-inhibiting LXR agonist. […] The Oxy13 compound is discussed in international application PCT/US2007/05073, which is hereby incorporated by reference.
A known hedgehog agonist is contacted with a model cell in an amount known to induce a hedgehog pathway response or hedgehog signaling response in the cell. Any cell that responds to a hedgehog agonist and an LXR agonist can be used as a model cell. The compound is then tested with an assay to measure the level of hedgehog activation or hedgehog signaling. One of skill in the art would know how to select an assay and conduct an assay to measure the level of hedgehog activation or hedgehog signaling. The hedgehog agonist will cause the level of hedgehog activation or signaling to increase above that of a control cell. While the hedgehog agonist is in contact with the cell, the compound being tested is also contacted with the cell. The level of hedgehog activation or signaling is measured. If introducing the compound decreases the level of hedgehog activation or signaling a statistically significant amount below the level when only the hedgehog agonist was in contact with the cell, then the compound is deemed a hedgehog-inhibiting LXR agonist.

LXRα and LXRβ = assay: Inhibition of Shh-induced signaling and alkaline phosphatase activity in siRNA-transfected cells; conditions: for Ability to inhibit Shh-induced signaling and alkaline phosphatase activity: cells transfected with LXRα and LXRβ siRNA; for Ability to inhibit Shh-induced signaling and alkaline phosphatase activity: blocked or not: cells transfected with control scrambled siRNA
Description: Small interfering RNA (siRNA) to LXRα and LXRβ caused an 80-90% inhibition of mRNA expression for these genes, as well as inhibition of ligand-induced expression of LXR target genes, ATP-binding cassette (ABC) transporter proteins ABCA1 and ABCG1.

marrow stromal cells = assay: Osteogenic differentiation of marrow stromal cells; conditions: for Effect on oxysterol-induced osteogenic differentiation: marrow stromal cells
Method: Certain osteogenic oxysterols, such as 20(S)-hydroxycholesterol (20S), induce the osteogenic differentiation of marrow stromal cells by activating the hedgehog signaling pathway. […] Thus, LXR activation can interfere with osteogenic differentiation induced by the activation of hedgehog signaling.
When treated with from 1-10 μM of GW3965 for 8 days, GW3965 inhibited Shh-induced alkaline phosphatase activity.

M2-10B4 cells = assay: Shh-induced osteocalcin mRNA expression in M2-10B4 cells; conditions: 3 days, 1 μM to 10 μM, relative to Shh alone
[2] = tested on: C3H10T½ mouse embryonic fibroblasts; assay: Alkaline phosphatase activity in C3H10T½ cells; conditions: 1-10 μM
[3] = tested on: C3H10T½ mouse embryonic fibroblasts; assay: Osteocalcin expression in C3H10T½ cells; conditions: 1-10 μM
[4] = tested on: Gli-luciferase reporter construct (8Xgli); assay: Gli-luciferase reporter assay in M2-10B4 cells
Method: Activation or inhibition of the hedgehog pathway was assessed by measuring Gli-reporter activity. This provided a direct indication of the activation or inhibition of the hedgehog pathway. A first set of marrow stromal cells, M2-10B4, were transfected with a Gli-luciferase reporter construct (8Xgli) and a second set of M2-10B4 were transfected with an empty reporter construct without Gli response elements (pGL3b). […] Gli-luciferase reporter activity was tested after 48 hours of treatment. FIG. 1 presents the results of the study. Results from a representative experiment are shown as the mean of triplicate determinations±SD, and expressed as fold induction over control untreated cells.

Gli-1 = assay: Q-RT-PCR expression of hedgehog target gene Gli-1 in M2-10B4 cells
Method: (§1) Activation or inhibition of the hedgehog pathway was assessed by extracting RNA from test cells and using quantitative real time PCR (Q-RT-PCR) to measure the expression of the hedgehog target genes, Gli-1 and Patched (Ptch). […] Expression of Gli-1 and Patched (Ptch) was measured after 72 hours of treatment. FIGS. 2A and 2B present the results of the study. Results from a representative experiment are shown as the mean of triplicate determinations±SD, and expressed as fold induction over control untreated cells.

Patched (Ptch) = assay: Q-RT-PCR expression of hedgehog target gene Patched (Ptch) in M2-10B4 cells
Method: as §1

[5] = 72 hours, SS 5 μM + TO901317 5 μM
[6] = 72 hours, SS 5 μM + TO901317 10 μM
[7] = 72 hours, Shh 100 ng/mL + TO901317 5 μM
[8] = 72 hours, Shh 100 ng/mL + TO901317 10 μM

With `CC(C)CCC[C@](C)(O)[C@H]1CC[C@H]2[C@@H]3CC=C4C[C@@H](O)CC[C@]4(C)[C@H]3CC[C@@]21C` [20(S)-hydroxycholesterol] the “Induction of alkaline phosphatase activity” value ([1]; marrow stromal cells M2-10B4, oxysterol alone) was “induce alkaline phosphatase activity” and the “Net effect on the hedgehog pathway” value (hedgehog pathway) was “activating the hedgehog pathway”.

`CC(C)CC[C@@H](O)[C@@H](C)[C@H]1CC[C@H]2[C@@H]3CC=C4C[C@@H](O)CC[C@]4(C)[C@H]3CC[C@]12C` [22(R)-hydroxycholesterol] was tested, and the “Net effect on the hedgehog pathway” value (hedgehog pathway) was “inhibiting the hedgehog pathway”.

In the case of `C[C@H](CCCC(C)(C)O)[C@H]1CC[C@H]2[C@@H]3CC=C4C[C@@H](O)CC[C@]4(C)[C@H]3CC[C@]12C` [25-hydroxycholesterol], the “Net effect on the hedgehog pathway” value (hedgehog pathway) is reported as “leaves the hedgehog pathway active”.

`O=C(O)Cc1cccc(OCCCN(Cc2cccc(C(F)(F)F)c2Cl)CC(c2ccccc2)c2ccccc2)c1` [GW3965, 3-[3-[[[2-chloro-3-(trifluoromethyl)phenyl]methyl](2,2-diphenylethyl)amino]propoxy]benzeneacetic acid] was tested, and the “Effect on Shh-induced alkaline phosphatase activity” value ([1]; 8 days, 1-10 μM) was “inhibited”, the “Ability to inhibit Shh-induced signaling and alkaline phosphatase activity” value (LXRα and LXRβ) was “blocked” and the “Ability to inhibit Shh-induced signaling and alkaline phosphatase activity: blocked or not” value (LXRα and LXRβ) was “not”. The “Effect on Shh-induced osteogenic differentiation” value (marrow stromal cells; M2-10B4 marrow stromal cells) was “inhibited”, the “Effect on oxysterol-induced osteogenic differentiation” value (marrow stromal cells) was “block” and the “Net effect on the hedgehog pathway” value (hedgehog pathway) was “inhibiting the hedgehog pathway”.

`C=C(C)CCC[C@](C)(O)C1CCC2C3CC=C4CC(O)CC[C@]4(C)C3CC[C@@]21C` (stereo partly drawn) [Oxy13] was tested, and the “Net effect on the hedgehog pathway” value (hedgehog pathway) was “activating the hedgehog pathway”.

`O=S(=O)(c1ccccc1)N(CC(F)(F)F)c1ccc(C(O)(C(F)(F)F)C(F)(F)F)cc1` [TO901317] was tested, and the “Effect on Shh-induced alkaline phosphatase activity” value ([1]; 3 days, concentrations as low as 1 μM) was “inhibited”, the “Alkaline Phosphatase Activity” value ([1]; SS 5 μM + TO901317 5 μM) was 198 ± 17 units/mg protein ± SD and the “Alkaline Phosphatase Activity” value ([1]; SS 5 μM + TO901317 10 μM) was 61 ± 12 units/mg protein ± SD. The “Alkaline Phosphatase Activity” value ([1]; Shh 50 ng/ml + TO901317 5 μM) was 3±2 units/mg protein ± SD, the “Effect on Shh-induced osteocalcin mRNA expression” value (M2-10B4 cells) was “inhibited” and the “Effect on alkaline phosphatase activity” value [2] was “inhibited”. For the same compound, the “Effect on osteocalcin expression” value [3] was “inhibited”, the Gli-luciferase reporter activity ([4]; 48 hours, SS 5 μM + TO901317 5 μM) was “about 2.5 fold induction over control un” and the Gli-luciferase reporter activity ([4]; 48 hours, SS 5 μM + TO901317 10 μM) was “about the same level as of the control cells”. For the same compound, the Gli-luciferase reporter activity ([4]; 48 hours, Shh 200 ng/mL + TO901317 5 μM) was “about the same level as of the control cells”, the Gli-luciferase reporter activity ([4]; TO901317 alone, 5 μM or 10 μM) was “less than the control cells” and the Gli-1 expression (Gli-1; [5]) was “about 8 fold induction over control un”. For the same compound, the Gli-1 expression (Gli-1; [6]) was “about 7 fold induction over control un”, the Gli-1 expression (Gli-1; [7]) was “about 7 fold induction over control un” and the Gli-1 expression (Gli-1; [8]) was “about 3 fold induction over control un”. The Gli-1 expression (Gli-1; TO901317 alone, 5 μM or 10 μM) was “less than the control cells”, the Ptch expression (Patched (Ptch); [5]) was “about 6 fold induction over control un” and the “Ptch expression (FIG. 2B; sentence prints Gli-1 expression)” value (Patched (Ptch); [6]) was “about 4 fold induction over control un”. The Ptch expression (Patched (Ptch); [7]) was “about the same level as that of the control cells”, the Ptch expression (Patched (Ptch); [8]) was “about the same level as that of the control cells” and the Ptch expression (Patched (Ptch); TO901317 alone, 5 μM or 10 μM) was “about the same as the control cells”. The “Ability to inhibit Shh-induced signaling and alkaline phosphatase activity” value (LXRα and LXRβ) was “blocked”, the “Ability to inhibit Shh-induced signaling and alkaline phosphatase activity: blocked or not” value (LXRα and LXRβ) was “not” and the “Effect on oxysterol-induced osteogenic differentiation” value (marrow stromal cells) was “block”. For the same compound, the “Net effect on the hedgehog pathway” value (hedgehog pathway) was “inhibiting the hedgehog pathway”.
